For one compound, IC50 results are on record in BindingDB's records for doi:10.1021/jm400568p (University of Manchester, 2013).

Structures are written as SMILES.

The target in the assay is DNA-(apurinic or apyrimidinic site) endonuclease (Homo sapiens, UniProt P27695). The assay can be described thus: Inhibition of APE-1 (unknown origin) using double-stranded AP-site containing DNA as substrate after 30 mins by fluorescence assay.
Chain of DNA-(apurinic or apyrimidinic site) endonuclease (P27695 whole entry): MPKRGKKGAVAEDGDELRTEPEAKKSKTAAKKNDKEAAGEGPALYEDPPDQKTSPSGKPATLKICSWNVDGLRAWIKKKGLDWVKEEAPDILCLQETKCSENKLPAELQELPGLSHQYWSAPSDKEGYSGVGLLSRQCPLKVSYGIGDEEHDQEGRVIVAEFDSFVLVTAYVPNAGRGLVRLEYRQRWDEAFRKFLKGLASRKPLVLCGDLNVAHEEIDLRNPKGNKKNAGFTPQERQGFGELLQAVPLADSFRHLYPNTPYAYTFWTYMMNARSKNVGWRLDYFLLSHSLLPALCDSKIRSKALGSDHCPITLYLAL

The term IC50 denotes the concentration at which inhibition is half-maximal. A lower IC50 goes with inhibition by little substance. As for `Cn1nc(-c2ccccc2)c(O)c2c(=O)[nH]c(=N)nc1-2`, the half-inhibitory concentration (IC50) was > 200 µM.
